The values below come from article PMC6152407, “Molecular Mechanisms Underlying Inhibitory Binding of Alkylimidazolium Ionic Liquids to Laccase” (Molecules : A Journal of Synthetic Chemistry and Natural …, 2017).

Bounds are passed on as bounds.

One series has as its system Tve laccase. To be noted: ABTS, pH 3, cited from earlier work.
Series [1] concerns Myceliophthora thermophila (Mth) laccase. In kind it is biochemical. Here is the method: (§1) Reaction velocities (vo) were determined by mixing 50 μL of the properly diluted enzyme, 50 μL of substrate solution, and 2.4 mL of the media containing phosphate–citrate buffer (30 mM) and ILs in a 1 cm × 1 cm × 4 cm quartz colorimetric cell. […] All the reported data were averaged from at least three parallel measurements.

Series [2] concerns the target Myceliophthora thermophila (Mth) laccase. The series can be described thus: Inhibition kinetics of laccase/ABTS oxidation (Lineweaver–Burk). The class given is biochemical. The note with it: laccase/ABTS oxidation at pH 3; read-out: competitive inhibition constant Kic. Here is the method: as §1
A series of vo were measured under varied concentrations of substrate ([S]) and IL ([I]). The Lineweaver–Burk diagrams were then constructed by plotting 1/vo against 1/[S] to estimate Km and Vmax according to Equation (1). The features of inhibition by different ILs were also deduced from the diagrams. Ki was correspondingly calculated from Equations (2), (3) or (4).
(2) (Competitive) 1/v0=KM/Vmax[S](1+[I]/Kic)+ 1/Vmax

On the set-up of series [3]: method as in PMID 26556325. To be noted: 80% aqueous solution; cited from earlier work.
A short description of series [4]: Stability of ABTS cation radicals in ILs/buffer media. To be noted: 30 mM buffer without IL. How it is done:
ABTS cation radicals (ABTS^+) were obtained from the oxidation of ABTS (10 mmol/L) with the laccase (50 U/L) in […] phosphate–citrate buffer (pH 3) at 40 °C for 2 h. Then, the reaction mixtures were centrifuged in an ultrafiltration tube (molecular weight cutoff 10 kDa; Millipore, Bedford, MA, USA) at 9000× g for 10 min). Enzymes and polymerized substances were removed. The oxidized products were incubated with buffer (30 mM, pH 2~7) and ionic liquids (50 mM) at 25 °C for 6 min. The concentration of each product was monitored by the spectrophotometer.

As for `[Cl-].[Na+]` [NaCl], in the series with Tve laccase, the “uncompetitive constant Kiu” value was 18.1 mM. In addition, the Ki on Tve laccase (read-out: competitive constant Kic) was 350 µM. Turning to `CCCCn1cc[n+](C)c1.[Cl-]` [[Bmim]Cl], the retained laccase activity in series [1] (pH 3) was 65~75%. For the same molecule, in the series on Mth laccase, the “initial activity retained by re-dissolved complex” value is recorded as 65%.

For the molecule `CCCCCCCCCCn1cc[n+](C)c1` [[Dmim]Cl], in series [1] (50 mM IL, ABTS, pH 3 (Figure 2d)), the “laccase inactivation” value is reported as “almost completely inactivated”. Further, the Ki in series [2] is 180 µM. As for `CCCCCCCC[n+]1ccn(C)c1` [[Omim]Cl], in series [2], the Ki came to 2150 µM. For `CC(C)=O` [acetone], the “time for 50% reduction of ABTS^+” value in series [3] was no more than 7 min. As to ABTS^+, the results for the “half-life of ABTS^+” value in series [4] (pH 2) and in series [4] (pH 7) were 6.17 h and 0.728 h, respectively.

As to KCl, the “activity loss compared with other salts” value in series [1] (pH 3) was “more activity loss than alkylimidazolium chlorides”.
